Assay: xn = mol fraction of the nth substance listed
Conditions: 101 kPa, Liquid; for viscosity: Concentric cylinders viscometry; for mass density: Vibrating tube method

CCCn1cc[n+](C)c1.F[B-](F)(F)F [1-propyl-3-methylimidazolium tetrafluoroborate] + CCCCCCn1cc[n+](C)c1.F[B-](F)(F)F
Conditions | mass density [kg/m3] | viscosity [mPa·s]
293.15 K, x1 = 0.1006 | 1154.7 | 257.8
293.15 K, x1 = 0.2005 | 1162.5 | 233.5
293.15 K, x1 = 0.2995 | 1170.4 | 212.7
293.15 K, x1 = 0.3996 | 1179.1 | 195.9
293.15 K, x1 = 0.4991 | 1188.1 | 176.5
293.15 K, x1 = 0.601 | 1197.2 | 158.4
293.15 K, x1 = 0.7001 | 1207.1 | 141.4
293.15 K, x1 = 0.8 | 1217.3 | 125.1
293.15 K, x1 = 0.8987 | 1228 | 110.2
293.15 K, x1 = 1 | 1239.3 | 95.44
298.15 K, x1 = 0.1006 | 1151.2 | 190.4
298.15 K, x1 = 0.2005 | 1159.1 | 173.1
298.15 K, x1 = 0.2995 | 1167.1 | 158.5
298.15 K, x1 = 0.3996 | 1175.6 | 146.3
298.15 K, x1 = 0.4991 | 1184.5 | 132.5
298.15 K, x1 = 0.601 | 1193.7 | 119.6
298.15 K, x1 = 0.7001 | 1203.6 | 107.2
298.15 K, x1 = 0.8 | 1213.9 | 95.66
298.15 K, x1 = 0.8987 | 1224.5 | 84.81
298.15 K, x1 = 1 | 1235.7 | 74.04
303.15 K, x1 = 0.1006 | 1147.8 | 143.5
303.15 K, x1 = 0.2005 | 1155.6 | 131.1
303.15 K, x1 = 0.2995 | 1163.5 | 120.5
303.15 K, x1 = 0.3996 | 1172 | 111.6
303.15 K, x1 = 0.4991 | 1181 | 101.6
303.15 K, x1 = 0.601 | 1190.2 | 92.16
303.15 K, x1 = 0.7001 | 1200 | 83.12
303.15 K, x1 = 0.8 | 1210.2 | 74.61
303.15 K, x1 = 0.8987 | 1220.8 | 66.57
303.15 K, x1 = 1 | 1232 | 58.59
308.15 K, x1 = 0.1006 | 1144.4 | 110.3
308.15 K, x1 = 0.2005 | 1152.1 | 101.2
308.15 K, x1 = 0.2995 | 1160.1 | 93.37
308.15 K, x1 = 0.3996 | 1168.6 | 86.79
308.15 K, x1 = 0.4991 | 1177.4 | 79.34
308.15 K, x1 = 0.601 | 1186.7 | 72.34
308.15 K, x1 = 0.7001 | 1196.4 | 65.59
308.15 K, x1 = 0.8 | 1206.6 | 59.23
308.15 K, x1 = 0.8987 | 1217.2 | 53.19
308.15 K, x1 = 1 | 1228.3 | 47.16
313.15 K, x1 = 0.1006 | 1141 | 86.32
313.15 K, x1 = 0.2005 | 1148.6 | 79.47
313.15 K, x1 = 0.2995 | 1156.6 | 73.61
313.15 K, x1 = 0.3996 | 1165.1 | 68.66
313.15 K, x1 = 0.4991 | 1173.9 | 63.07
313.15 K, x1 = 0.601 | 1183.2 | 57.75
313.15 K, x1 = 0.7001 | 1192.8 | 52.63
313.15 K, x1 = 0.8 | 1203 | 47.79
313.15 K, x1 = 0.8987 | 1213.5 | 43.19
313.15 K, x1 = 1 | 1224.7 | 38.56
318.15 K, x1 = 0.1006 | 1137.6 | 68.62
318.15 K, x1 = 0.2005 | 1145.2 | 63.43
318.15 K, x1 = 0.2995 | 1153.1 | 58.96
318.15 K, x1 = 0.3996 | 1161.6 | 55.18
318.15 K, x1 = 0.4991 | 1170.4 | 50.91
318.15 K, x1 = 0.601 | 1179.7 | 46.8
318.15 K, x1 = 0.7001 | 1189.3 | 42.87
318.15 K, x1 = 0.8 | 1199.4 | 39.14
318.15 K, x1 = 0.8987 | 1209.9 | 35.56
318.15 K, x1 = 1 | 1221 | 31.98
323.15 K, x1 = 0.1006 | 1134.2 | 55.36
323.15 K, x1 = 0.2005 | 1141.7 | 51.35
323.15 K, x1 = 0.2995 | 1149.6 | 47.9
323.15 K, x1 = 0.3996 | 1158.1 | 44.99
323.15 K, x1 = 0.4991 | 1166.9 | 41.66
323.15 K, x1 = 0.601 | 1176.1 | 38.47
323.15 K, x1 = 0.7001 | 1185.8 | 35.41
323.15 K, x1 = 0.8 | 1195.8 | 32.48
323.15 K, x1 = 0.8987 | 1206.2 | 29.67
323.15 K, x1 = 1 | 1217.4 | 26.83
328.15 K, x1 = 0.1006 | 1130.8 | 45.26
328.15 K, x1 = 0.2005 | 1138.3 | 42.13
328.15 K, x1 = 0.2995 | 1146.2 | 39.43
328.15 K, x1 = 0.3996 | 1154.7 | 37.15
328.15 K, x1 = 0.4991 | 1163.4 | 34.53
328.15 K, x1 = 0.601 | 1172.6 | 32.02
328.15 K, x1 = 0.7001 | 1182.3 | 29.61
328.15 K, x1 = 0.8 | 1192.1 | 27.28
328.15 K, x1 = 0.8987 | 1202.7 | 25.04
328.15 K, x1 = 1 | 1213.8 | 22.77
333.15 K, x1 = 0.1006 | 1127.4 | 37.44
333.15 K, x1 = 0.2005 | 1134.9 | 34.97
333.15 K, x1 = 0.2995 | 1142.7 | 32.83
333.15 K, x1 = 0.3996 | 1151.3 | 31.04
333.15 K, x1 = 0.4991 | 1159.9 | 28.95
333.15 K, x1 = 0.601 | 1169.2 | 26.95
333.15 K, x1 = 0.7001 | 1178.7 | 25.03
333.15 K, x1 = 0.8 | 1188.6 | 23.15
333.15 K, x1 = 0.8987 | 1199.1 | 21.37
333.15 K, x1 = 1 | 1210.2 | 19.54
338.15 K, x1 = 0.1006 | 1124.1 | 31.31
338.15 K, x1 = 0.2005 | 1131.5 | 29.33
338.15 K, x1 = 0.2995 | 1139.3 | 27.63
338.15 K, x1 = 0.3996 | 1147.8 | 26.21
338.15 K, x1 = 0.4991 | 1156.5 | 24.53
338.15 K, x1 = 0.601 | 1165.7 | 22.92
338.15 K, x1 = 0.7001 | 1175.2 | 21.38
338.15 K, x1 = 0.8 | 1185.2 | 19.85
338.15 K, x1 = 0.8987 | 1195.5 | 18.4
338.15 K, x1 = 1 | 1206.6 | 16.92
343.15 K, x1 = 0.1006 | 1120.7 | 26.45
343.15 K, x1 = 0.2005 | 1128.1 | 24.83
343.15 K, x1 = 0.2995 | 1135.9 | 23.46
343.15 K, x1 = 0.3996 | 1144.4 | 22.3
343.15 K, x1 = 0.4991 | 1153 | 20.96
343.15 K, x1 = 0.601 | 1162.2 | 19.65
343.15 K, x1 = 0.7001 | 1171.7 | 18.4
343.15 K, x1 = 0.8 | 1181.6 | 17.19
343.15 K, x1 = 0.8987 | 1192 | 15.98
343.15 K, x1 = 1 | 1203 | 14.77

— the NIST ThermoML archive (doi:10.1021/je400332j)
